Results: BindingDB's records for patent WO2022091056 (NOVARTIS AG, 2022)
pIC50: −log10 of the molar value.

Target: Interleukin-17 receptor A/ (Homo sapiens, UniProt Q16552)
Assay: Human IL-17A x IL-17RA TR-FRET assay
Procedure: The final total assay volume is 10 µL. […] The neutral control (NC) contains all the assay components, but DMSO instead of test compound. […] The fluorescence values for emission at 615 nm and 665 nm are loaded to the evaluation software Helios.

Sequence of Interleukin-17 receptor A/ (Q16552 whole entry): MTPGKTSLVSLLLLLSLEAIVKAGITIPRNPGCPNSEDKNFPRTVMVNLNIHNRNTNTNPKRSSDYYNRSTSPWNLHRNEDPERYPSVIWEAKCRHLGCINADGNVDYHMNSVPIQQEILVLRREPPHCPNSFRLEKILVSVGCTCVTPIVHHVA
Sequence of Interleukin-17 receptor A/ (Q96F46 whole entry, further chain): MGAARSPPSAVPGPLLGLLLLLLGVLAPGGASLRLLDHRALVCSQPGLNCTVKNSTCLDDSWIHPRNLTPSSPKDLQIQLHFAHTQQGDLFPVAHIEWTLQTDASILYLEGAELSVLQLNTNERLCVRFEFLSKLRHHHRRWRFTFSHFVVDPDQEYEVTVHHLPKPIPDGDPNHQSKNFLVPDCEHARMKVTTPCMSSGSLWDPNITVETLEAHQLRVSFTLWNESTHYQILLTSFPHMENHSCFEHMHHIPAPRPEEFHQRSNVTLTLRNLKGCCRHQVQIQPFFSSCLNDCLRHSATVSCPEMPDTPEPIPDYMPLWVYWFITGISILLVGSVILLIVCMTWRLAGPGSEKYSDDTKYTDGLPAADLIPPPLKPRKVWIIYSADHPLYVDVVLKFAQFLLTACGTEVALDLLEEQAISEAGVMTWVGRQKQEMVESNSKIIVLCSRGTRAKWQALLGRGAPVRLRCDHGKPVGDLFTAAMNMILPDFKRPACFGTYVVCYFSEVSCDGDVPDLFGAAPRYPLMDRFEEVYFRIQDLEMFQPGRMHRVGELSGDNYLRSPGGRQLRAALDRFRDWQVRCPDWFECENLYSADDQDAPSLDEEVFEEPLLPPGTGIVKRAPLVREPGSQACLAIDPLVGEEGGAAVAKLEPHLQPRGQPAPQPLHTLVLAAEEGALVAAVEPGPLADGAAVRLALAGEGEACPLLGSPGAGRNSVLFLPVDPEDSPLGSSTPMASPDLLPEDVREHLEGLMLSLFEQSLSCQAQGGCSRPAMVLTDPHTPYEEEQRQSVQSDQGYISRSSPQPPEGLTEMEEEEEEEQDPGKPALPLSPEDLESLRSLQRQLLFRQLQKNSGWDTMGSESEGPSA

SMILES	pIC50
Cc1cc[n+]([O-])c(C)c1-c1ccc(NC(=O)[C@@H](NC(=O)c2conc2CN)C2CCCCC2)cc1 [WO2022091056, Example 79]	6.04
Cc1c[n+]([O-])cc(C)c1-c1ccc(NC(=O)[C@@H](NC(=O)c2ccnn2C)C2CCCCC2)cc1 [WO2022091056, Example 97]	5.76

The next lines start with the values.

pIC50	SMILES
5.70	Cc1c(-c2ccc(NC(=O)[C@@H](NC(=O)c3ccnn3C)C3CCCCC3)cc2F)ccc[n+]1[O-] [WO2022091056, Example 83]
7.64	Cc1c(-c2ccc(NC(=O)[C@@H](NC(=O)c3ccnn3C)[C@H]3CCCC(F)(F)C3)cc2F)c(Cl)cc[n+]1[O-] [WO2022091056, Example 110]
5.42	Cc1nccc(Cl)c1-c1ccc(NC(=O)[C@@H](NC(=O)c2ccnn2C)C2CCCCC2)cc1F [WO2022091056, Example 137]
